Reference: US9045248B2 (priority 2007, dated 2015)

Biological target: wild-type cap-binding domain of PB2 (Influenza A virus, UniProt P31345, R389K)
Design: species or system Influenza A/Victoria/3/1975(H3N2)

Compound | Kd [µM]
Nc1nc2c(ncn2[C@@H]2O[C@H](COP(=O)(O)OP(=O)(O)OP(=O)(O)O)[C@@H](O)[C@H]2O)c(=O)[nH]1 [GTP] | 1020 ± 100
C[n+]1cn([C@@H]2O[C@H](COP(=O)(O)OP(=O)(O)OP(=O)(O)O)[C@@H](O)[C@H]2O)c2nc(N)[nH]c(=O)c21 [m^7GTP, 7-methyl-guanosine triphosphate] | 177 ± 34
